Measurements taken from US20060276464A1, “Diarylsulfone sulfonamides and use thereof” (Wyeth, priority 2005, published 2006).
Several values for one entry are separate records, joined by “and”; a condition that tells them apart may be missing. Equal values may be shown once. Read-outs that look alike come from different tables or passages of the source.

Assays:
[1] = target: T1, SFRP-1 (Homo sapiens, UniProt Q8N474); experiment: Fluorescence polarization binding assay (competitive displacement of a probe compound from SFRP-1); details: fluorescence anisotropy, 45 nM SFRP-1, 20 nM probe;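 further: test compound competes with a fluorescent probe held by SFRP-1, seen as a drop in probe anisotropy after incubation in darkness, with anisotropy as function of rising compound dose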
T1 sequence (Q8N474 32-314): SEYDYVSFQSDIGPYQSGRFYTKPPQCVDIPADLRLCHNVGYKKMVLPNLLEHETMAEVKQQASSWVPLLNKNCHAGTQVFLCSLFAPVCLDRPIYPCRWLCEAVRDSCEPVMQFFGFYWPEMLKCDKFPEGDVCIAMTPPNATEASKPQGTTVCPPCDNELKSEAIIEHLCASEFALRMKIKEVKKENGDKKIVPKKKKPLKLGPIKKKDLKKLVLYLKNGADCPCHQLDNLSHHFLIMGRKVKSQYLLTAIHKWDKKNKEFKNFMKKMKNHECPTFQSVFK

[2] = target: T1, SFRP-1; experiment: Cell-based assay for in vitro measurement of SFRP-1/SARP2 antagonist activity (U2OS cells co-transfected with 16x TCF-tk-Luciferase reporter, Wnt and hSFRP-1); details: U2OS, single dose, luciferase reporter;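 further: U2OS cells co-transfected with a TCF-tk luciferase reporter, a Wnt vector, hSFRP-1 or empty vector and CMV-βgal, luciferase luminescence read in cell lysates alongside βgal activity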
[3] = read-out: Fold Induction with SFRP-1, Conc 15 μM, fold induction over SFRP-1 control, cells with SFRP-1
[4] = read-out: Fold Induction without SFRP-1, Conc 15 μM, cells without SFRP-1 (specificity control)

| IC50 [1] | fold induction at 15 µM [2, 3] | fold induction at 15 µM [2, 4] | Compound |
| --- | --- | --- | --- |
| 600 nM | 2.8 | 1.2 | Cc1cccc(Cl)c1S(=O)(=O)c1ccc(C(C)C)c(S(=O)(=O)NCCc2ccccn2)c1 [Example 578, 5-[(2-chloro-6-methylphenyl)sulfonyl]-2-isopropyl-N-(2-pyridin-2-ylethyl)benzenesulfonamide] |
| 600 nM | 3.4 | 1 | Cc1cccc(S(=O)(=O)c2ccc(C(C)C)c(S(=O)(=O)NCCc3ccccn3)c2)c1 [Example 579, 2-isopropyl-5-[(3-methylphenyl)sulfonyl]-N-(2-pyridin-2-ylethyl)benzenesulfonamide] |
| 700 nM | 2.8 | 1.3 | CC(C)c1ccc(S(=O)(=O)c2ccc(N(C)CCC#N)cc2)cc1S(=O)(=O)NC1CCOCC1 [Example 580, 5-({4-[(2-cyanoethyl)(methyl)amino]phenyl}sulfonyl)-2-isopropyl-N-(tetrahydro-2H-pyran-4-yl)benzenesulfonamide] |
| 1000 nM | 2.2 | 1.3 | CC(C)c1ccc(S(=O)(=O)c2ccc(N(C)CCC#N)cc2)cc1S(=O)(=O)NCC1CCOCC1 [Example 581, 5-({4-[(2-cyanoethyl)(methyl)amino]phenyl}sulfonyl)-2-isopropyl-N-(tetrahydro-2H-pyran-4-ylmethyl)benzenesulfonamide] |
| 300 nM | 3.9 | 1.1 | Cc1nccn1CCNS(=O)(=O)c1cc(S(=O)(=O)c2ccc(F)cc2)ccc1C(C)C [Example 583, 5-[(4-fluorophenyl)sulfonyl]-2-isopropyl-N-[2-(2-methyl-1H-imidazol-1-yl)ethyl]benzenesulfonamide] |
| 500 nM | 3.4 | 1.1 | CCc1nccn1CCNS(=O)(=O)c1cc(S(=O)(=O)c2ccc(F)cc2)ccc1C(C)C [Example 584, N-[2-(2-ethyl-1H-imidazol-1-yl)ethyl]-5-[(4-fluorophenyl)sulfonyl]-2-isopropylbenzenesulfonamide] |
| 8000 nM | 2.7 | 1.1 | CC(=O)N1CCC(NS(=O)(=O)c2cc(S(=O)(=O)c3ccc(F)cc3)ccc2C)CC1 [Example 585, N-(1-acetylpiperidin-4-yl)-5-[(4-fluorophenyl)sulfonyl]-2-methylbenzenesulfonamide] |
| 2400 nM | 1.9 | 1.1 | Cc1ccc(S(=O)(=O)c2ccc(F)cc2)cc1S(=O)(=O)NC1CCN(C(=O)c2ccc(C#N)cc2)CC1 [Example 586, N-[1-(4-cyanobenzoyl)piperidin-4-yl]-5-[(4-fluorophenyl)sulfonyl]-2-methylbenzenesulfonamide] |
| 5000 nM | 1.2 | 1.2 | Cc1ccc(S(=O)(=O)c2ccc(F)cc2)cc1S(=O)(=O)NC1CCN(C(=O)N(C)C)CC1 [Example 587, 4-[({5-[(4-fluorophenyl)sulfonyl]-2-methylphenyl}sulfonyl)amino]-N,N-dimethylpiperidine-1-carboxamide] |
| 400 nM | 3.6 | 1.7 | CC(C)c1ccc(S(=O)(=O)c2ccc(F)cc2)cc1S(=O)(=O)NCCn1ccnc1C(C)C [Example 588, 5-[(4-fluorophenyl)sulfonyl]-2-isopropyl-N-[2-(2-isopropyl-1H-imidazol-1-yl)ethyl]benzenesulfonamide] |
| 4000 nM | 2.6 | 1.3 | COCC(=O)N1CCC(NS(=O)(=O)c2cc(S(=O)(=O)c3ccc(F)cc3)ccc2C)CC1 [Example 589, 5-[(4-fluorophenyl)sulfonyl]-N-[1-(methoxyacetyl)piperidin-4-yl]-2-methylbenzenesulfonamide] |
| 2000 nM and 2500 nM | 2.9 | 1 | CC(C)c1ccc([S@+]([O-])c2ccccc2)cc1S(=O)(=O)NCCc1ccccn1 [Example 590, 2-isopropyl-5-[(R)-phenylsulfinyl]-N-(2-pyridin-2-ylethyl)benzenesulfonamide] |
| 5000 nM and 6000 nM | 3.1 | 1.3 | CC(C)c1ccc([S@@+]([O-])c2ccccc2)cc1S(=O)(=O)NCCc1ccccn1 [Example 591, 2-isopropyl-5-[(S)-phenylsulfinyl]-N-(2-pyridin-2-ylethyl)benzenesulfonamide] |
| 1000 nM | 3.1 | 1.1 | O=S(=O)(NCCc1ccccn1)c1cc(S(=O)(=O)c2ccccc2)ccc1Br [Example 592, 2-bromo-5-(phenylsulfonyl)-N-(2-pyridin-2-ylethyl)benzenesulfonamide] |
| 900 nM | 2 | 1.1 | Cc1c(C#N)cccc1S(=O)(=O)c1ccc(C(C)C)c(S(=O)(=O)NCCc2ccccn2)c1 [Example 593, 5-[(3-cyano-2-methylphenyl)sulfonyl]-2-isopropyl-N-(2-pyridin-2-ylethyl)benzenesulfonamide] |
| 4000 nM | 2.3 | 1 | CC(=O)c1cccc(S(=O)(=O)c2ccc(C(C)C)c(S(=O)(=O)NCCc3ccccn3)c2)c1C [Example 594, 5-[(3-acetyl-2-methylphenyl)sulfonyl]-2-isopropyl-N-(2-pyridin-2-ylethyl)benzenesulfonamide] |
| 1200 nM | 3.4 | 1.4 | CC(C)c1ccc(S(=O)(=O)c2ccc(F)c(Cl)c2)cc1S(=O)(=O)NCCc1ccccn1 [Example 595, 5-[(3-chloro-4-fluorophenyl)sulfonyl]-2-isopropyl-N-(2-pyridin-2-ylethyl)benzenesulfonamide] |
| 1600 nM | 4.2 | 1.3 | Cc1cc(F)ccc1S(=O)(=O)c1ccc(C(C)C)c(S(=O)(=O)NCCc2ccccn2)c1 [Example 596, 5-[(4-fluoro-2-methylphenyl)sulfonyl]-2-isopropyl-N-(2-pyridin-2-ylethyl)benzenesulfonamide] |
| 400 nM | 3.7 | 1.3 | CC(C)c1ccc(S(=O)(=O)c2ccc3c(ccn3C)c2)cc1S(=O)(=O)NCCc1ccccn1 [Example 597, 2-isopropyl-5-[(1-methyl-1H-indol-5-yl)sulfonyl]-N-(2-pyridin-2-ylethyl)benzenesulfonamide] |
| 900 nM | 3.6 | 1.4 | COc1cccc(S(=O)(=O)c2ccc(C(C)C)c(S(=O)(=O)NC3CCOCC3)c2)c1 [Example 598, 2-isopropyl-5-[(3-methoxyphenyl)sulfonyl]-N-(tetrahydro-2H-pyran-4-yl)benzenesulfonamide] |
| 600 nM | 4.2 | 1.4 | CNc1ccc(S(=O)(=O)c2ccc(C(C)C)c(S(=O)(=O)NCCc3ccccn3)c2)c(C)c1 [Example 599, 2-isopropyl-5-{[2-methyl-4-(methylamino)phenyl]sulfonyl}-N-(2-pyridin-2-ylethyl)benzenesulfonamide] |
| 2000 nM | 3 | 1.1 | Cc1cc(N(C)C)ccc1S(=O)(=O)c1ccc(C(C)C)c(S(=O)(=O)NCCc2ccccn2)c1 [Example 600, 5-{[4-(dimethylamino)-2-methylphenyl]sulfonyl}-2-isopropyl-N-(2-pyridin-2-ylethyl)benzenesulfonamide] |
| 8000 nM | 2.4 | 0.9 | Cc1ccc(S(=O)(=O)c2ccc(F)cc2)cc1S(=O)(=O)NC1CCN(C(=O)N2CCOCC2)CC1 [Example 603, 5-[(4-fluorophenyl)sulfonyl]-2-methyl-N-[1-(morpholin-4-ylcarbonyl)piperidin-4-yl]benzenesulfonamide] |
| 7000 nM | 2.2 | 1.1 | Cc1cccc(S(=O)(=O)c2ccc(Cl)c(S(=O)(=O)NC3CCOCC3)c2)c1 [Example 604, 2-chloro-5-[(3-methylphenyl)sulfonyl]-N-(tetrahydro-2H-pyran-4-yl)benzenesulfonamide] |
| 600 nM | 3.2 | 1.1 | CNc1ccc(S(=O)(=O)c2ccc(C(C)C)c(S(=O)(=O)NCCc3ccccn3)c2)cc1Cl [Example 605, 5-{[3-chloro-4-(methylamino)phenyl]sulfonyl}-2-isopropyl-N-(2-pyridin-2-ylethyl)benzenesulfonamide] |
| 8000 nM | 1.9 | 1 | COc1cccc(S(=O)(=O)c2ccc(Cl)c(S(=O)(=O)NC3CCOCC3)c2)c1 [Example 606, 2-chloro-5-[(3-methoxyphenyl)sulfonyl]-N-(tetrahydro-2H-pyran-4-yl)benzenesulfonamide] |
| 2000 nM | 2.3 | 1.1 | Cn1ccc2cc(S(=O)(=O)c3ccc(Cl)c(S(=O)(=O)NC4CCOCC4)c3)ccc21 [Example 607, 2-chloro-5-[(1-methyl-1H-indol-5-yl)sulfonyl]-N-(tetrahydro-2H-pyran-4-yl)benzenesulfonamide] |
